The results in this text go back to patent US4935425A, “4H-quinolizin-4-ones for treatment of diseases associated with immunoglobulin e-antibody formation” (Kissei Pharmaceutical Co., Ltd., priority 1987, dated 1990).

One experiment concerns IgG. The experiment in a line: Determination of IgG (Igs other than IgE) produced in in vitro culture of spleen cells from DNP-As immunized mice (ELISA). The class given is cell-based, BALB/c mice. Conditions: Mus musculus, 96 h, 4 days culture, 37° C.; for inhibition at 20 µg/mL: 20 μg/ml; for inhibition at 10 µg/mL: 10 μg/ml. The method, then:
(§1) And the inhibitory activities of the quinolizinone derivative of formula (I) are further confirmed by the determination of serum concentrations of Igs in BALB/c mice which are immunized by DNP-As according to a procedure described in Immunology, Vol 21, pp 11-12, 1971.
(§2) BALB/c mice were immunized intraperitoneally with 5 μg of DNP-As adsorbed on 4 mg aluminum hydroxide gel Four weeks after the immunization,the spleens were excised from the mice and 5×10^7 spleen cells were transferred intravenously into the recipient mice which had been exposed to 600 rad of X-ray irradiation. Immediately after cell transfer, the recipients were then immunized intraperitoneally with 5 μg of DNP-As adsorbed on 4 mg aluminum hydroxide gel to induce adoptive secondary immune response. Further 4 weeks after the immunization of recipients, the spleens were excised from them and the spleen cell suspensions containing 5×10^6 cells/ml were cultured with or without a compound to be tested in 96-well micro-titer plates at 37° C. for 4 days. IgE and IgG secreted into the culture supernatant was each determined correspondingly by ELISA and the inhibitory effect was calculated according to the following equation. [formula]

The subject of the next experiment is IgE. The experiment in a line: Determination of IgE produced in in vitro culture of spleen cells from DNP-As immunized mice (ELISA). The class given is cell-based, BALB/c mice. Conditions: Mus musculus, 96 h, 4 days culture, 37° C.; for inhibition at 20 µg/mL: 20 μg/ml; for inhibition at 10 µg/mL: 10 μg/ml. On the procedure:
as §1, §2
(In general: An ELISA detects its analyte on a solid surface through an enzyme-linked reagent.)

Take `CCOC(=O)c1c(NCc2ccccn2)c(C#N)c(=O)n2ccccc12` [S-1, 3-Cyano-1-ethoxycarbonyl-2-(2-pyridylmethylamino)-4H-quinolizin-4-one]: the inhibition (in general, the relative decrease from the control value, in per cent) at 20 µg/mL in the experiment on IgG came to 13%; with IgE it was 60%.
The like results for `CCOC(=O)c1c(NCc2cccnc2)c(C#N)c(=O)n2ccccc12` [S-6, 3-Cyano-1-ethoxycarbonyl-2-(3-pyridylmethylamino)-4H-quinolizin-4-one] were, in that order, 16% and 68%.
As for `CCOC(=O)c1c(NCc2cnccn2)c(C#N)c(=O)n2ccccc12` [S-14, 3-Cyano-1-ethoxycarbonyl-2-pyrazinylmethylamino-4H-quinolizin-4-one], the inhibition at 10 µg/mL turned out to be 1% in the experiment on IgG and 72% in the experiment on IgE.
`CCOC(=O)c1c(NCc2nccnc2C)c(C#N)c(=O)n2ccccc12` [S-15, 3-Cyano-1-ethoxycarbonyl-2-(3-methylpyrazinyl)methylamino-4H-quinolizin-4-one]: the values for the inhibition at 10 µg/mL in the experiment with IgG and in the experiment with IgE were 3% and 73%, respectively.
For the compound `CCOC(=O)c1c(NCc2cnc(C)cn2)c(C#N)c(=O)n2ccccc12` [S-16, 3-Cyano-1-ethoxycarbonyl-2-(5-methylpyrazinyl)-methylamino-4H-quinolizin-4-one], the inhibition at 20 µg/mL in the experiment with IgG stood at 7%; in the experiment with IgE, 68%.
With `CCOC(=O)c1c(NCc2cncc(C)n2)c(C#N)c(=O)n2ccccc12` [S-17, 3-Cyano-1-ethoxycarbonyl-2-(6-methylpyrazinyl)-methylamino-4H-quinolizin-4-one], the inhibition at 10 µg/mL worked out at 12% in the experiment with IgG and 68% with IgE.
